In patent US8987257B2 (Novartis AG, priority 2011, dated 2015):
pEC50, pIC50: −log10 of the molar value.

Key:
[1] = system: constitutively active mTOR; assay: Test 3: TSC Assay (high content imaging of phospho-S6 (240/244) in TSC1−/− MEFs); type: cell-based; conditions: Mus musculus, pS6 240/244 staining, 2 hrs compound treatment
FRAP1/mTOR = FRAP1/mTOR (Homo sapiens (Human), UniProt P42345); assay: Test 2: mTOR Biochemical Assay (FRAP1/mTOR TR-FRET tracer assay); type: binding; conditions: mTOR Kinase Tracer 314
Sequence of FRAP1/mTOR (P42345 1360-2549): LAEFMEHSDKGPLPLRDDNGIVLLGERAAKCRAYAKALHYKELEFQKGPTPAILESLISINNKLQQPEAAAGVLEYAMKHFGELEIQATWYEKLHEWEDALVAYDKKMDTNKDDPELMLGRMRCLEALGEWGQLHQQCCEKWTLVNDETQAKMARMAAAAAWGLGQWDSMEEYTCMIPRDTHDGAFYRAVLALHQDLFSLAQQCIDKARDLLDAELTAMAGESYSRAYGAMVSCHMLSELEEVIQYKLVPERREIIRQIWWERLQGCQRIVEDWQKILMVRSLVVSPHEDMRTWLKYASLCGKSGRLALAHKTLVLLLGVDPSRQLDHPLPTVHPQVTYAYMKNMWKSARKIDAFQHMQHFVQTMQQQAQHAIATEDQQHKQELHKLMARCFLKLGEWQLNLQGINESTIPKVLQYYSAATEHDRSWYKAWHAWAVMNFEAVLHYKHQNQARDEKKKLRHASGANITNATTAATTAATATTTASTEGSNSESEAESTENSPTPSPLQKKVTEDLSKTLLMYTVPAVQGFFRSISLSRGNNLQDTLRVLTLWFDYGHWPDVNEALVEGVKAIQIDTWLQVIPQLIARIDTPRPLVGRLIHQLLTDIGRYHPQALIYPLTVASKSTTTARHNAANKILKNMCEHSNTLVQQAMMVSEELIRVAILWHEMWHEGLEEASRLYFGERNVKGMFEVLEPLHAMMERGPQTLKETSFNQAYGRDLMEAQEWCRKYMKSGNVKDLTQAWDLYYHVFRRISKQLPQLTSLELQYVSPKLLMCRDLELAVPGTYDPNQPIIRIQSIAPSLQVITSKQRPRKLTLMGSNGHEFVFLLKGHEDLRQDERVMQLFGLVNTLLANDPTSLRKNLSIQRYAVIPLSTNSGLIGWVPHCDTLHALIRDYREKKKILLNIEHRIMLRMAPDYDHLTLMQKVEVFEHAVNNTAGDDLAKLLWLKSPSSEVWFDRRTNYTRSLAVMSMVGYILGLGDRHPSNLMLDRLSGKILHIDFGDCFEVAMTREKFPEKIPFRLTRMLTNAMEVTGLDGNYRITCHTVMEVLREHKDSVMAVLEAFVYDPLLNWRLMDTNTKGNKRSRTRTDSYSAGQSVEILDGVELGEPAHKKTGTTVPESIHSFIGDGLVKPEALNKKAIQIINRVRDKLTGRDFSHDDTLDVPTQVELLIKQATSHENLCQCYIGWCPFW

PI3Kα = PI3Kα (Homo sapiens (Human), UniProt P42336); assay: Test 1: PI3 Kinase Assay (PI3K KinaseGlo assay); type: biochemical; conditions: 1 μM ATP
Sequence of PI3Kα (P42336 other isoform, or with tags, fused parts or gaps): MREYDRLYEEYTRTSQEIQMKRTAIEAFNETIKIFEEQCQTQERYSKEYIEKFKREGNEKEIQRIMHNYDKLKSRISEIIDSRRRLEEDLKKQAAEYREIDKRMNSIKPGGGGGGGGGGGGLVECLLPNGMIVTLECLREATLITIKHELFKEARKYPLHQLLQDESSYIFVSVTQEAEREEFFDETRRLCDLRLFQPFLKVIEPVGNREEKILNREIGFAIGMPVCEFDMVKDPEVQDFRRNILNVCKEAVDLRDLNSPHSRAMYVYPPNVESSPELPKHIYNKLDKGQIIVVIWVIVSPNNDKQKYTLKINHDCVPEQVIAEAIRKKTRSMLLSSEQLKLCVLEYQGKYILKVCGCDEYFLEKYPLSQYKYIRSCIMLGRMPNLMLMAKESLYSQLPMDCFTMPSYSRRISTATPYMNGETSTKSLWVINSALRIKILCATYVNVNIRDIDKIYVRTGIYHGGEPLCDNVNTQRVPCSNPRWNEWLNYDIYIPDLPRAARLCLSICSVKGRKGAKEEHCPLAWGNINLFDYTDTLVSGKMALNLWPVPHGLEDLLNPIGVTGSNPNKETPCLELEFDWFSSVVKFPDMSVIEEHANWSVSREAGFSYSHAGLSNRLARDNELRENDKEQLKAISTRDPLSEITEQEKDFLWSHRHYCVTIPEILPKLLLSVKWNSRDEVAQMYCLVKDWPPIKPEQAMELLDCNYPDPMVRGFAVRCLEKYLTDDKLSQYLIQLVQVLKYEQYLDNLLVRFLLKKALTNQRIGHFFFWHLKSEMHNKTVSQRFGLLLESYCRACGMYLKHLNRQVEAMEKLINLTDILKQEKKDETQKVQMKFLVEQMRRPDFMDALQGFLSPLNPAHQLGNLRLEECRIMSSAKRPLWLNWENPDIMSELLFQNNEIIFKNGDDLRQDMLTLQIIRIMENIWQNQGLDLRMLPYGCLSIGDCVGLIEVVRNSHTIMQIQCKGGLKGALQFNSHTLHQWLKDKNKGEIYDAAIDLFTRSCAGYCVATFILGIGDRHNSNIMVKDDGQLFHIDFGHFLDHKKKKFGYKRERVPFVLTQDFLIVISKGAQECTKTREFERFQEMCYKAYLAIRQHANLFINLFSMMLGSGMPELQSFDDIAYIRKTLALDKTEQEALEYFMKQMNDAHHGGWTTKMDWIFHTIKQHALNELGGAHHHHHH

H4 mCherry-GFP-LC3 cells = assay: Test 4: Autophagy Assay (mCherry-GFP-LC3 reporter, high-content imaging); type: cell-based; conditions: Homo sapiens, 16-18 h
Source text: Autophagy is a catabolic pathway that degrades bulk cytosol in lysosomal compartments enabling amino acids and fatty acids to be recycled. […] To quantify autophagy induction by mTOR inhibitors, we use a mCherry-GFP-LC3 reporter which is amenable to retroviral delivery into mammalian cells, stable expression and analysis by fluorescence microscopy.
Described hereinafter is an imaging protocol and image recognition algorithm to visualize and measure changes in the autophagic pathway.
Quantification of Autophagy Using High-Content Imaging and Analysis
• 1. Day 0: Cell plating. Subconfluent H4 mCherry-GFP-LC3 cells are harvested by trypsinization, resuspended in growth medium, and counted (H4 cells: Human neuroglioma cell line (ATCC)). A cell suspension of 66′000 cells/mL is prepared and 30 μL are added into the wells of a 384-well plate using an electronic multichannel pipette. […] The cell plates are briefly spun down and placed at 37° C. and 5% CO2. • 2. Day 1: Compound treatment. Compound dose responses are prepared in DMSO. The dose responses are then diluted 1:50 in medium. 10 ul of the diluted compound is added to 30 ul of cells, yielding a final 1:200 dilution of the original compound and final of 0.5% DMSO. Compound-treatments are performed in triplicates. The 384-well plates are placed at 37° C. and 5% CO2. Compound treatment is performed for 16-18 h (see Note 1). • 3. Day 2: Cell fixation. Cells are fixed by adding 10 μL/well 5× concentrated Mirsky's fixative supplemented with 25 μg/mL Hoechst33342. […] The 384-well plate is briefly spun down and incubated for 1 h at room temperature. Cells are then washed using a 384-well plate washer using a protocol which aspirates the volume down to 10 μL/well before dispensing 100 μL/well 1×TBS. Aspiration and dispensing steps are repeated 4 times and a final volume of 100 μL/well is left. The plate is sealed using an adhesive PCR foil. • 4. Imaging. The bottom of the plate is cleaned with 70% ethanol and then imaged using the InCell 1000 automated epifluorescence microscope. 20× magnification is used and 4 different areas (fields) are imaged per well, this typically captures a total of around 400 cells per well. Hoechst33342 images are acquired using an excitation of 360 nm (D360—40× filter), an emission of 460 nm (HQ460—40M filter) and an exposure time of 150 ms. GFP images are acquired using an excitation of 475 nm (S47520× filter), an emission of 535 nm (HQ535—50M filter) and an exposure time of 1 s. mCherry images are acquired using an excitation of 535 nm (HQ535—50× filter), an emission of 620 nm (HQ620—60M filter) and an exposure time of 1 s. A quadruple band pass mirror is used for all images. • 5. Image analysis. The InCell Analysis software is used to analyze the images using the Multi Target Analysis algorithm. First, nuclei are detected in the Hoechst33342 image using top-hat segmentation and a minimal nuclear area of 50 μm^2. Cells are defined using a collar of 10 μm around the nuclei. Second, puncta (organelles) are identified in the mCherry image inside the cells using multi-top-hat segmentation. Third, the mask of the mCherry puncta is transferred onto the GFP image. Fourth, the GFP fluorescence intensity inside the mCherry puncta mask is measured (reference intensity). • 6. The ‘organelles’ parameter reflects mCherry-positive puncta of the mCherry-GFP-LC3 reporter and is used to calculate ‘LC3 puncta/cell’. For this purpose, the number of organelles is calculated per cell and averaged over all the cells in a given well (average per cell basis). mCherry-positive LC3 puncta numbers (y-axis) are plotted against the compound dose response values (x-axis) and EC50 values are calculated for each compound. EC50 values represent compound potency in terms of autophagy activation (e.g. increase in mCherry-positive LC3 puncta count). Notes • 1. Autophagy-modulation and redistribution of mCherry-GFP-LC3 can be already observed after a compound treatment time of 3-4 h. […]

[2] = Table 1, mCherry-positive LC3 puncta/cell
[3] = Table 4 (unit inferred), mCherry-positive LC3 puncta/cell

| Compound | pIC50 [1] | pIC50 (FRAP1/mTOR) | pIC50 (PI3Kα) | pEC50 (H4 mCherry-GFP-LC3 cells; [2]) | pEC50 (H4 mCherry-GFP-LC3 cells; [3]) |
| --- | --- | --- | --- | --- | --- |
| Oc1cccc(-c2cc3c(N4CCOCC4)nc(N4CCOCC4)nc3[nH]2)c1 [Example 2, 3-(2,4-Di-morpholin-4-yl-7H-pyrrolo[2,3-d]pyrimidin-6-yl)-phenol] | 6.52 | 7.40 | 5.98 | 6.44 | – |
| C[C@H]1COCCN1c1nc(N2CCOC[C@@H]2C)c2nc(-c3cccc4[nH]ccc34)[nH]c2n1 [Example 22, 8-(1H-Indol-4-yl)-2,6-bis-((S)-3-methyl-morpholin-4-yl)-9H-purine] | 6.95 | 8.30 | 5.23 | 6.12 | – |
| C[C@H]1COCCN1c1nc(N2CCOCC2)c2nc(-c3ccc4cc[nH]c4c3)[nH]c2n1 [Example 49] | 6.17 | 6.43 | 5.35 | – | < 6.30 |
| Nc1cccc(-c2nc3c(N4CCOCC4)nc(N4CCOCC4)nc3[nH]2)c1 [Example 29, 3-(2,6-Di-morpholin-4-yl-9H-purin-8-yl)-phenylamine] | 5.68 | 5.92 | 5.41 | < 5.30 | – |
| C[C@@H]1COCCN1c1nc(N2CCOC[C@@H]2C)nc2[nH]c(-c3cccc4c3CCN4)nc12 [Example 41, 8-(2,3-Dihydro-1H-indol-4-yl)-2-((S)-3-methyl-morpholin-4-yl)-6-((R)-3-methyl-morpholin-4-yl)-9H-purine] | 6.34 | 7.52 | 5.47 | – | 5.54 |
| CC(O)c1cccc(-c2nc3c(N4CCOC[C@@H]4C)nc(N4CCOCC4)nc3[nH]2)c1 (stereo partly drawn) [Example 12, 1-{3-[6-((S)-3-Methyl-morpholin-4-yl)-2-morpholin-4-yl-9H-purin-8-yl]-phenyl}-ethanol] | 5.71 | 5.69 | 5.54 | < 5.00 | – |
| c1cc2ccc(-c3nc4c(N5C[C@@H]6C[C@H]5CO6)nc(N5CCOCC5)nc4[nH]3)cc2[nH]1 [Example 48, 8-(1H-Indol-6-yl)-2-morpholin-4-yl-6-(1S,4S)-2-oxa-5-aza-bicyclo[2.2.1]hept-5-yl-9H-purine] | 5.83 | 6.00 | 5.37 | – | 5.19 |
| COc1cc(CO)cc(-c2nc3c(N4CCOC[C@@H]4C)nc(N4CCOC[C@@H]4C)nc3[nH]2)c1 [Example 17, {3-[2,6-Bis-((S)-3-methyl-morpholin-4-yl)-9H-purin-8-yl]-5-methoxy-phenyl}-methanol] | 5.82 | 6.40 | 6.40 | 5.50 | – |
| NCc1cccc(-c2nc3c(N4CCOCC4)nc(N4CCOCC4)nc3[nH]2)c1 [Example 11, 3-(2,6-Di-morpholin-4-yl-9H-purin-8-yl)-benzylamine] | 5.22 | 5.62 | 5.09 | < 5.70 | – |
| c1cc2ncc(-c3nc4c(N5CCOCC5)nc(N5CCOCC5)nc4[nH]3)cc2[nH]1 [Example 13, 2,6-Di-morpholin-4-yl-8-(1H-pyrrolo[3,2-b]pyridin-6-yl)-9H-purine] | 5.56 | 6.33 | 6.37 | 5.07 | – |
| c1cc(-c2nc3c(N4C5CCC4COC5)nc(N4CCOCC4)nc3[nH]2)c2cc[nH]c2c1 [Example 54, 8-(1H-Indol-4-yl)-2-morpholin-4-yl-6-(3-oxa-8-aza-bicyclo[3.2.1]oct-8-yl)-9H-purine] | 6.51 | 6.82 | 5.24 | – | 5.90 |
| C[C@@H]1COCCN1c1nc(N2CCOC[C@H]2C)c2nc(-c3cccc4c3CCN4)[nH]c2n1 [Example 42, 8-(2,3-Dihydro-1H-indol-4-yl)-2,6-bis-((R)-3-methyl-morpholin-4-yl)-9H-purine] | 7.00 | 7.40 | 5.31 | – | 5.33 |
| c1cc2ccc(-c3nc4c(N5CCOCC5)nc(N5CCOCC5)nc4[nH]3)cc2[nH]1 [Example 28, 8-(1H-Indol-6-yl)-2,6-di-morpholin-4-yl-9H-purine] | 6.34 | 6.43 | 5.04 | < 6.70 | – |
| C[C@H]1COCCN1c1nc(N2CCOCC2)nc2[nH]c(-c3cc(CO)ccc3Cl)nc12 [Example 10, {4-Chloro-3-[6-((S)-3-methyl-morpholin-4-yl)-2-morpholin-4-yl-9H-purin-8-yl]-phenyl}-methanol] | 5.24 | 5.74 | 6.14 | < 5.00 | – |

More lines, now with the values ahead:

| pIC50 [1] | pIC50 (FRAP1/mTOR) | pIC50 (PI3Kα) | pEC50 (H4 mCherry-GFP-LC3 cells; [2]) | pEC50 (H4 mCherry-GFP-LC3 cells; [3]) | Compound |
| --- | --- | --- | --- | --- | --- |
| 6.52 | 6.87 | 6.77 | 5.70 | – | C[C@@H]1COCCN1c1nc(N2CCOC[C@H]2C)c2nc(-c3cc(CO)ccc3F)[nH]c2n1 [Example 19, {3-[2,6-Bis-((R)-3-methyl-morpholin-4-yl)-9H-purin-8-yl]-4-fluoro-phenyl}-methanol] |
| 5.73 | 5.85 | 5.74 | 5.81 | – | C[C@H]1COCCN1c1nc(N2CCOCC2)nc2[nH]c(-c3ccc(F)c(CO)c3)nc12 [Example 4, {2-Fluoro-5-[6-((S)-3-methyl-morpholin-4-yl)-2-morpholin-4-yl-9H-purin-8-yl]-phenyl}-methanol] |
| 7.09 | 8.10 | 6.24 | 6.74 | – | c1cc(-c2nc3c(N4CCOCC4)nc(N4CCOCC4)nc3[nH]2)c2cc[nH]c2c1 [Example 26, 8-(1H-Indol-4-yl)-2,6-di-morpholin-4-yl-9H-purine] |
| 5.14 | 5.49 | < 5.04 | < 5.00 | – | COc1ccc(-c2nc3c(N4CCOC[C@@H]4C)nc(N4CCOCC4)nc3[nH]2)cc1C(=O)O [Example 9, 2-Methoxy-5-[6-((S)-3-methyl-morpholin-4-yl)-2-morpholin-4-yl-9H-purin-8-yl]-benzoic acid] |
| 5.52 | 6.42 | < 5.04 | 5.11 | – | CS(=O)(=O)Nc1cccc(-c2nc3c(N4CCOCC4)nc(N4CCOCC4)nc3[nH]2)c1 [Example 33, N-[3-(2,6-Di-morpholin-4-yl-9H-purin-8-yl)-phenyl]-methanesulfonamide] |
| 6.00 | 6.19 | 5.15 | – | < 6.40 | C[C@@H]1COCCN1c1nc(N2CCOC[C@H]2C)c2nc(-c3ccc4cc[nH]c4c3)[nH]c2n1 [Example 45, 8-(1H-Indol-6-yl)-2,6-bis-((R)-3-methyl-morpholin-4-yl)-9H-purine] |
| 6.46 | 8.15 | < 5.04 | 5.89 | – | C[C@H]1COCCN1c1nc(N2CCOC[C@@H]2C)c2nc(-c3ccc4cc[nH]c4c3)[nH]c2n1 [Example 14, 8-(1H-Indol-6-yl)-2,6-bis-((S)-3-methyl-morpholin-4-yl)-9H-purine] |
| 6.84 | 6.80 | 5.60 | – | 5.64 | CC1(C)COCCN1c1nc(N2CCOCC2)nc2[nH]c(-c3ccc4cc[nH]c4c3)nc12 [Example 39, 6-(3,3-Dimethyl-morpholin-4-yl)-8-(1H-indol-6-yl)-2-morpholin-4-yl-9H-purine] |
| 6.86 | 7.85 | 5.26 | 5.79 | – | C[C@H]1COCCN1c1nc(N2CCOCC2)nc2[nH]c(-c3cccc4[nH]ccc34)nc12 [Example 23, 8-(1H-Indol-4-yl)-6-((S)-3-methyl-morpholin-4-yl)-2-morpholin-4-yl-9H-purine] |
